Results from ChEMBL document CHEMBL1149086, “Antimalarial and antitumor evaluation of novel C-10 non-acetal dimers of 10beta-(2-hydroxyethyl)deoxoartemisinin” (J Med Chem, 2004).

Test system: Plasmodium falciparum
Assay: In vitro antimalarial activity against Plasmodium falciparum K1 by [3H]hypoxanthine uptake
Format: functional, organism-based

C[C@H]1[C@@H](CCOCc2ccc(COCC[C@H]3O[C@@H]4O[C@]5(C)CC[C@H]6[C@H](C)CC[C@@H]([C@H]3C)[C@@]46OO5)cc2)O[C@@H]2O[C@]3(C)CC[C@H]4[C@H](C)CC[C@@H]1[C@@]24OO3
IC50: 2.4 nM
